The values that follow come from ChEMBL document CHEMBL5260798, “Structural Analysis of Chemokine Receptor-Ligand Interactions” (J Med Chem, 2017).

The structures appear in SMILES notation.

Test [1] has as its target T1, C-C chemokine receptor type 5 (Homo sapiens, UniProt P51681). Nature of the test: Inhibition of wild type CCR5 (unknown origin).
Test [2] concerns the target T2, C-X-C chemokine receptor type 3 (Homo sapiens, UniProt P49682).
T2 sequence (P49682 whole entry): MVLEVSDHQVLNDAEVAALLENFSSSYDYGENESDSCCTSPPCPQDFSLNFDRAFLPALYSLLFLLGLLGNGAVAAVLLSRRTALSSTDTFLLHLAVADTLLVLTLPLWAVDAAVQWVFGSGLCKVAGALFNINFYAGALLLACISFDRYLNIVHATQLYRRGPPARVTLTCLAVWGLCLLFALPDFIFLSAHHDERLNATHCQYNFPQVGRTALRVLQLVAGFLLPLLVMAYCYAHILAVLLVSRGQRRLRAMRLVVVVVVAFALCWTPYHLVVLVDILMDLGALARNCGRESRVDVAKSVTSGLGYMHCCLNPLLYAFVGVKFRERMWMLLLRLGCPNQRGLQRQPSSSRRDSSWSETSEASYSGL
Nature of the test: Inhibition of human recombinant CXCR3.

For test [3], the target named is T2, C-X-C chemokine receptor type 3. Put plainly: Inhibition of human wild type CXCR3.
Test [4] has as its target C-X-C chemokine receptor type 4 (Homo sapiens, UniProt P61073). Put plainly: Binding affinity to CXCR4 (unknown origin) assessed as inhibition constant.
Test [5] can be described thus: Inhibition of CXCR4-Y251A mutant (unknown origin). Details: species or system Homo sapiens.
Test [6] deals with C-C chemokine receptor type 2 (Homo sapiens, UniProt P41597). Nature of the test: Binding affinity to CCR2 (unknown origin) assessed as inhibition constant.
Test [7] addresses T1, C-C chemokine receptor type 5. Put plainly: Inhibition of human CCR5.
Test [8] deals with C-C chemokine receptor type 8 (Homo sapiens, UniProt P51685). Nature of the test: Inhibition of CCR8 mutant (unknown origin).
Test [9] addresses T3, C-X-C chemokine receptor type 2 (Homo sapiens, UniProt P25025).
T3 sequence (P25025 whole entry): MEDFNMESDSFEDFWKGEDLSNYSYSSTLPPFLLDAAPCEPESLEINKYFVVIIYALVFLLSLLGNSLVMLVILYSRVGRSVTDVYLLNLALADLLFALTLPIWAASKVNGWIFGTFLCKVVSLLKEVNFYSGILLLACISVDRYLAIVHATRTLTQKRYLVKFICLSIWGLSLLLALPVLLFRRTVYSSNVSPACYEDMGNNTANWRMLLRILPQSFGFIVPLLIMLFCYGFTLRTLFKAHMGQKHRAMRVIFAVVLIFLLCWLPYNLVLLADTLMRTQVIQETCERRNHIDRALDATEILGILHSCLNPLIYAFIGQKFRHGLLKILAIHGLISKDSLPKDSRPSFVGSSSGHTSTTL
Nature of the test: Binding affinity to wild type human CXCR2 assessed as dissociation constant.

The nature of test [10]: Binding affinity to CXCR4-Y251A mutant (unknown origin) assessed as […]. Details: species or system Homo sapiens.

Sequence of C-C chemokine receptor type 2 (P41597 whole entry): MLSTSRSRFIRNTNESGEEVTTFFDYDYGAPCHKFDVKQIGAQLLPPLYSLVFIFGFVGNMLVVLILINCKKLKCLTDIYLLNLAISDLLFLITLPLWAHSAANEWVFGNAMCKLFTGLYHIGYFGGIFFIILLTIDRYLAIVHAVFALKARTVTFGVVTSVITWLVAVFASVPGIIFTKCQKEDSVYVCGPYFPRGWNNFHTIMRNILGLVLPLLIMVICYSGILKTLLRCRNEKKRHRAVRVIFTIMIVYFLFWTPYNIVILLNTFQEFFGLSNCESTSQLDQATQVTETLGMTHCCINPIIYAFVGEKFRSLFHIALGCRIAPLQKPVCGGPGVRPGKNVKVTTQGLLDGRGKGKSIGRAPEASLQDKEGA
Sequence of C-C chemokine receptor type 8 (P51685 whole entry, looked up, change not shown): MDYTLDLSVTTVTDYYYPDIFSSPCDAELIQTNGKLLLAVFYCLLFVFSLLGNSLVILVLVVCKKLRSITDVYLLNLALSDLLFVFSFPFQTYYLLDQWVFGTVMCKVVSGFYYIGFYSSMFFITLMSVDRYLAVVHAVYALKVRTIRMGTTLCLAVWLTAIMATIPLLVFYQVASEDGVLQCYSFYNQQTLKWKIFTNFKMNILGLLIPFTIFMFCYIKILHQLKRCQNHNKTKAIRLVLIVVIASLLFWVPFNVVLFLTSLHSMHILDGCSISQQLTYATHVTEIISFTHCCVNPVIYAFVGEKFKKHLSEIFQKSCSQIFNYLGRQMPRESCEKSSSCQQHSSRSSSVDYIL
Sequence of C-X-C chemokine receptor type 4 (P61073 whole entry): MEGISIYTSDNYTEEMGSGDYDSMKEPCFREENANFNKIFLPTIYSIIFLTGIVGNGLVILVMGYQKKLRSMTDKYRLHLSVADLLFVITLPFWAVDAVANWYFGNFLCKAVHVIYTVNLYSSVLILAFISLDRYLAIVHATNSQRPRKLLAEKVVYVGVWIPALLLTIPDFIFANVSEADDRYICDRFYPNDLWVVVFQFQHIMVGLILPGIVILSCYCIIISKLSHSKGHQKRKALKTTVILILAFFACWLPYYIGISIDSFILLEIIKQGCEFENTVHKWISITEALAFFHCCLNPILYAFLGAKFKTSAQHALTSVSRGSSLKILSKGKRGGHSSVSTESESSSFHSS
T1 sequence (P51681 whole entry): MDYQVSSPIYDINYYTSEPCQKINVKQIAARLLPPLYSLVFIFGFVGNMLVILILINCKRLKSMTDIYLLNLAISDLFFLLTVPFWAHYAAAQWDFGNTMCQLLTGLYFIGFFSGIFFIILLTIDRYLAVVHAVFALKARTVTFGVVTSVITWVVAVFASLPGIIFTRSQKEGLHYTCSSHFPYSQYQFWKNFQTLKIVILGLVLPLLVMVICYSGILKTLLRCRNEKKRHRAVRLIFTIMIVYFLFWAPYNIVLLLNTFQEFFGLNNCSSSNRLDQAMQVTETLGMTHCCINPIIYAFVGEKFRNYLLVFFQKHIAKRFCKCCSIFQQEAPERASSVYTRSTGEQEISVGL

By IC50 is commonly meant the concentration that gives 50% inhibition. The molecule `CCCC[C@H]1C[C@@H](N(C)C(C)C)CC[C@H]1NC(=O)CNC(=O)c1cccc(C(F)(F)F)c1` yielded an IC50 in [1] of 0.0025 µM.
As for `CCOc1ccc(-n2c([C@@H](C)N(Cc3cccnc3)C(=O)Cc3ccc(F)c(C(F)(F)F)c3)nc3ncccc3c2=O)cc1`, the IC50 in test [2] and in test [3] was 0.0631 µM throughout.
As a reminder, the Ki is the equilibrium dissociation constant of an inhibitor or competing ligand from its target. Consider `CCCN(CCC)CCCCN(C)Cc1ccc(CN(Cc2ncc[nH]2)Cc2nccn2C)cc1`, for which the Ki in test [4] turned out to be 0.00061 µM.
Turning to `NCCCC[C@H](NC(=O)[C@@H]1Cc2ccccc2CN1C(=O)CCC(=O)c1ccccc1)C(=O)NCC(c1ccccc1)c1ccccc1`, the IC50 in test [3] was 1 µM.
Turning to `C[C@H](NC(=O)[C@H](CCCNC(=N)N)NC(=O)c1ccc(CNCc2ccccn2)cc1)c1cccc2ccccc12`, the Ki in [4] came to 8 µM.
In general, pIC50 refers to −log10 of the IC50, conventionally taken in molar units. The low end stands for a high IC50, the high end for a low IC50. As to `Cc1ccc(-c2ccc3c(c2)C=C(C(=O)Nc2ccc(C[N+](C)(C)C4CCOCC4)cc2)CCC3)cc1.[Cl-]`, the IC50 in [5] worked out at 0.019 µM. The Ki in test [6] was 0.0631 µM. This molecule also came in with a pIC50 in test [3] of 4.5.
As for `O=C(C1=C(O)C(=O)N(c2nnc(SCc3ccc(Cl)cc3)s2)C1c1cccs1)c1cc2ccccc2o1` (configuration not stated), half-maximal inhibition in test [7] (IC50) required 2 µM.
For `CCNS(=O)(=O)c1ccc(OC)cc1C1(O)CCN(Cc2cccc(Oc3ccccc3OC)c2)CC1`, in test [8], the pIC50 was 7.8.
One may read the Kd as the constant that tells how readily two partners part at equilibrium. As for `CC[C@@H](NC1C(=O)C(=O)C1Nc1cccc(C(=O)N(C)C)c1O)c1ccc(C)o1` (some centres not stated), the Kd in test [9] is 10000 µM.
Take `c1cc(CN2CCCNCCNCCCNCC2)cc(CN2CCCNCCNCCCNCC2)n1`: the Ki in test [4] was 0.85 µM.
In the case of `CCNC(=O)c1cnc(N2CCN(C3CCN(Cc4ccc(Cl)cc4)CC3)[C@@H](CC)C2)c(Cl)c1`, the IC50 in test [2] and in [3] was 0.0158 µM in each case.
In the case of `Cc1ccc(CN2CC[C@@H](NC(=O)CNC(=O)c3cccc(C(F)(F)F)c3)C2)c(C)c1`, the Ki in [6] was 0.316 µM.
The molecule `CCCCN1C(=O)[C@H](CC2CCCCC2)NC(=O)C12CCN(Cc1ccc(Oc3ccc(C(=O)O)cc3)cc1)CC2` came in with an IC50 in test [5] of 0.0167 µM.
Consider `C(CCCN1CCCNCCNCCCNCC1)CCN1CCCNCCNCCCNCC1`, for which the Ki in [4] was found to be 2.3 µM.
With `CC(=O)N1CCC(C(=O)N(CCCN2CCC(Cc3ccc(C(N)=O)cc3)CC2)c2ccc(C)c(Cl)c2)CC1`, the concentration for half-maximal inhibition (IC50) in test [5] is 0.02 µM.
On to `C[C@H](CO)Nc1nc(SCc2cccc(F)c2F)nc2[nH]c(=O)cnc12`, for which the Kd in [9] was 1 µM.
In turn, `COc1ccccc1Oc1cccc(CN2CCC(O)(c3ccccc3C(=O)O)CC2)c1` showed a pIC50 in test [8] of 7.5.
On the same count and under the same terms, next, `COc1ccccc1Oc1cccc(CN2CCC(NC(=O)C3CC(=O)Nc4ccccc43)CC2)c1` (configuration not stated): 7.3.
Turning to `C1CNCCNCCCN(CCCN2CCCNCCNCCCNCC2)CCNC1`, in test [4], the Ki is 0.18 µM.
Turning to `Cc1nnc(C(C)C)n1[C@H]1C[C@H]2CC[C@@H](C1)N2CC[C@H](NC(=O)C1CCC(F)(F)CC1)c1ccccc1` [MARAVIROC], the IC50 in test [5] turned out to be 0.0002 µM.
For `O=C(/C=C/c1ccc(Cl)c(Cl)c1)NCCCCCN1CCC(c2c[nH]c3ccc(O)cc23)CC1`, the Ki in test [6] is 0.1 µM.
Take `O=CNC(=C(Cl)Cl)[P+](c1ccccc1)(c1ccccc1)c1ccccc1.[O-][Cl+3]([O-])([O-])[O-]`: in test [10], the IC50 was 27 µM.
Turning to `CCO/N=C(\c1ccc(Br)cc1)C1CCN(C2(C)CCN(C(=O)c3c(C)cc[n+]([O-])c3C)CC2)CC1` [ANCRIVIROC], the IC50 in test [10] was found to be 0.016 µM.
